In PMC4951033, “Elevation of the Yields of Very Long Chain Polyunsaturated Fatty Acids via Minimal Codon Optimization of Two Key Biosynthetic Enzymes” (PLoS ONE, 2016):

Biological target: T1, PinD6 (PinDes6, delta-6 desaturase) (Phytophthora infestans, UniProt A0A833SQW7)
T1 construct: gene GN244_ATG16356

Structure (SMILES)	GC of fatty acid methyl esters from fed yeast
CC/C=C\C/C=C\C/C=C\CCCCCCCC(=O)O [ALA, α-linolenic acid]	WT-PinD6 can convert LA and ALA to GLA and SDA
CCCCC/C=C\C/C=C\CCCCCCCC(=O)O [LA]	WT-PinD6 can convert LA and ALA to GLA and SDA
